According to ChEMBL document CHEMBL2331111, “Antioxidant and anti-inflammatory meroterpenoids from the brown alga Cystoseira usneoides” (J Nat Prod, 2013):
Calls of active or inactive are those of the source. The calls are words filed in the database; no cut-off is given here.

Tests used:
[1] = Antioxidant activity assessed as ABTS free radical scavenging activity measured up to 6 mins by spectrophotometric analysis; type: functional
[2] = Ratio of trolox EC50 to compound EC50 for ABTS free radical scavenging activity
THP-1 [3] = assay: Cytotoxicity against PMA-treated human THP1 cells assessed as cell viability at 8 to 10 uM after 48 hrs by SRB assay; type: cell-based; conditions: thp-1, 48 h
THP-1 [4] = assay: Antiinflammatory activity in PMA-treated human THP1 cells assessed as inhibition of LPS-induced TNFalpha production at 6 uM incubated for 24 hrs prior to LPS challenge measured after 24 hrs by ELISA relative to control; type: functional
THP-1 [5] = assay: Antiinflammatory activity in PMA-treated human THP1 cells assessed as inhibition of LPS-induced TNFalpha production at 10 uM incubated for 24 hrs prior to LPS challenge measured after 24 hrs by ELISA relative to control; type: functional
THP-1 [6] = assay: Antiinflammatory activity in PMA-treated human THP1 cells assessed as inhibition of LPS-induced TNFalpha production at 2 uM incubated for 24 hrs prior to LPS challenge measured after 24 hrs by ELISA; type: functional, cell-based
THP-1 [7] = assay: Antiinflammatory activity in PMA-treated human THP1 cells assessed as inhibition of LPS-induced TNFalpha production at 8 uM incubated for 24 hrs prior to LPS challenge measured after 24 hrs by ELISA relative to control; type: functional

COc1c(C)cc(O)cc1C/C=C(\C)CC(=O)/C=C(/C)CCCC(C)=O [CYSTOMEXICONE A]
EC50 [1]: 51.6 µM | Ratio EC50 [2]: 0.5

COc1c(C)cc(O)cc1/C=C/C(C)(O)CC(=O)/C=C(\C)CCCC(C)C(=O)/C=C/C(C)(C)O (centres undefined) [CYSTODIONE B]
EC50 [1]: 24.4 µM | Ratio EC50 [2]: 1.06 | Activity (THP-1 [3]): Non-toxic | inhibition at 6 µM (THP-1 [4]): 11%

COc1c(C)cc(O)cc1/C=C/C(C)(O)CC(=O)/C=C(\C)CCCC(C)=O (centres undefined) [CYSTODIONE D]
inhibition at 10 µM (THP-1 [5]): 11% | EC50 [1]: 44.7 µM | Ratio EC50 [2]: 0.58 | Activity (THP-1 [3]): Non-toxic

Cc1c(C)c2c(c(C)c1O)CCC(C)(C(=O)O)O2 (centres undefined) [TROLOX]
EC50 [1]: 25.9 µM | Ratio EC50 [2]: 1

COc1c(C)cc(O)cc1C/C=C(\C)CC(=O)/C=C(/C)CCCC(C)C(=O)/C=C/C(C)(C)O (centres undefined)
EC50 [1]: 26.3 µM | inhibition (THP-1 [6]): inactive | Ratio EC50 [2]: 0.98 | Activity (THP-1 [3]): Non-toxic

COc1c(C)cc(O)cc1/C=C/C(C)(O)CC(=O)/C=C(/C)CCCC(C)=O (centres undefined) [CYSTODIONE C]
EC50 [1]: 55.9 µM | Ratio EC50 [2]: 0.46

COc1c(C)cc(O)cc1/C=C/C(C)(O)CC(=O)/C=C(/C)CCCC(C)C(=O)/C=C/C(C)(C)O (centres undefined) [CYSTODIONE A]
EC50 [1]: 22.5 µM | inhibition at 8 µM (THP-1 [7]): 33% | Ratio EC50 [2]: 1.15 | Activity (THP-1 [3]): Non-toxic

COc1c(C)cc(O)cc1C/C=C(\C)CC(=O)/C=C(\C)CCCC(C)C(=O)/C=C/C(C)(C)O (centres undefined)
EC50 [1]: 24.5 µM | Ratio EC50 [2]: 1.06

COc1c(C)cc(O)cc1C/C=C(\C)CC(=O)/C=C(\C)CCCC(C)=O [CYSTOMEXICONE B]
EC50 [1]: 33.3 µM | Ratio EC50 [2]: 0.78

COc1c(C)cc(O)cc1C/C=C(\C)CC(=O)/C=C(/C)CCCC(C)(O)C(=O)/C=C/C(C)(C)O (centres undefined) [USNEOIDONE Z]
inhibition at 10 µM (THP-1 [5]): 73% | EC50 [1]: 43.1 µM | Ratio EC50 [2]: 0.6 | Activity (THP-1 [3]): Non-toxic

COc1c(C)cc(O)cc1C/C=C(\C)CC(=O)/C=C(\C)CCCC(C)(O)C(=O)/C=C/C(C)(C)O (centres undefined)
inhibition at 10 µM (THP-1 [5]): 64% | EC50 [1]: 33.1 µM | Ratio EC50 [2]: 0.78 | Activity (THP-1 [3]): Non-toxic
